Experimental data taken from US20100048596A2, “Indole Derivatives as Antitumoral Compounds” (Pharma Mar, S.A., priority 2005, published 2010).

Assays:
MDA-MB-231 = format: cell-based; conditions: for GI50 / TGI: MDA-MB-231, 48 hours exposure, SRB; for TGI: total growth inhibition (cytostatic effect)
Excerpt: (§1) The finality of these assays is to interrupt the growth of an “in vitro” tumor cell culture by means of a continued exhibition of the cells to the sample to be testing.
(§2) Inhibition of Cell Growth by Colorimetric Assay
(§3) A colorimetric type of assay, using sulforhodamine B (SRB) reaction has been adapted for a quantitative measurement of cell growth and viability [following the technique described by Philip Skehan et al. (1990), New calorimetric cytotoxicity assay for anticancer drug screening, J. Natl. Cancer Inst., 82:1107-1112].
(§4) This form of assay employs 96 well cell culture microplates of 9 mm diameter (Faircloth et al. Methods in cell science, (1988), 11(4), 201-205; Mosmann et al, Journal of Immunological. Methods (1983), 65(1-2), 55-63). Most of the cell lines are obtained from American Type Culture Collection (ATCC) derived from different human cancer types.
(§5) Cells are maintained in RPMI 1640 10% FBS, supplemented with 0.1 g/L penicillin and 0.1 g/L streptomycin sulphate and then incubated at 37° C., 5% CO2 and 98% humidity. For the experiments, cells were harvested from subconfluent cultures using trypsin and resuspended in fresh medium before plating.
(§6) Cells are seeded in 96 well microtiter plates, at 5×10^3 cells per well in aliquots of 195 μL medium, and they are allowed to attach to the plate surface by growing in drug free medium for 18 hours. Afterward, samples are added in aliquots of 5 μL in a ranging from 10 to 10^−8 μg/mL, dissolved in DMSO:EtOH:PBS (0.5:0.5:99). After 48 hours exposure, the antitumor effect is measured by the SRB methodology: cells are fixed by adding 50 μL of cold 50% (wt/vol) trichloroacetic acid (TCA) and incubated for 60 minutes at 4° C. Plates are washed with deionised water and dried. 100 μL of SRB solution (0.4% wt/vol in 1% acetic acid) is added to each microtiter well and incubated for 10 minutes at room temperature. Unbound SRB is removed by washing with 1% acetic acid. Plates are air dried and bound stain is solubilized with Tris buffer. Optical densities are read on an automated spectrophotometric plate reader at a single wavelength of 490 nm.
(§7) The values for mean+/−SD of data from triplicate wells are calculated. Some parameters for cellular responses can be calculated: GI=growth inhibition, TGI=total growth inhibition (cytostatic effect) and LC=cell killing (cytotoxic effect).

A549 = format: cell-based; conditions: for GI50 / TGI: A549, 48 hours exposure, SRB; for TGI: total growth inhibition (cytostatic effect)
Excerpt: as §1, §2, §3, §4, §5, §6, §7

HT29 = format: cell-based; conditions: for GI50 / TGI: HT29, 48 hours exposure, SRB; for TGI: total growth inhibition (cytostatic effect)
Excerpt: as §1, §2, §3, §4, §5, §6, §7

CCRF-CEM cancer lines = conditions: Jiang et al. 2001; cited from earlier work
HOP-92 cancer lines = conditions: Jiang et al. 2001; cited from earlier work
IGROV1 tumor cell line = conditions: Jiang et al. 2001; cited from earlier work
A-549 = conditions: literature; cited from earlier work
P388 = conditions: literature; cited from earlier work
HT-29 = conditions: Sun and Sakemi 1991; cited from earlier work

Molecule | CC50 (MDA-MB-231) | GI50 (MDA-MB-231) | TGI (MDA-MB-231) | GI50 (A549) | GI50 (HT29) | TGI (HT29) | also measured
COn1cc(C2CCNC(=NC(C)=O)N2)c2cc(Br)ccc21 (single isomer, unassigned) [Compound IV] | 5200 nM | 411 nM | 1.37E−6 Molar | 630 nM | 329 nM | 4.65E−7 Molar | TGI (A549): 7.12E−7 Molar; CC50 (HT29): 767 nM
COn1cc(C2CCNC(=N)N2)c2cc(Br)c(Br)cc21 (single isomer, unassigned) [Compound V] |  | 7960 nM | 2.06E−5 Molar | 8700 nM | 7960 nM | 1.74E−5 Molar | 
COc1nc(-c2c[nH]c3ccccc23)cnc1N [compound 19, 2-amino-3methoxyl-5-(3′-indolyl)pyrazine] |  |  |  |  |  |  | GI50 (CCRF-CEM cancer lines): 810 nM; GI50 (HOP-92 cancer lines): 30 nM
C1=CN(c2c[nH]c3ccccc23)C(c2c[nH]c3ccccc23)N=C1 (stereo not drawn) [compound 8, 2,3-bis(3-indolyl)pyrimidine] |  |  |  |  |  |  | GI50 (IGROV1 tumor cell line): < 10 nM
COn1cc(C2CCNC(=NC(C)=O)N2)c2cc(Br)c(Br)cc21 (single isomer, unassigned) [Compound VI] | 4950 nM | 811 nM | 1.98E−6 Molar | 1310 nM | 473 nM | 9.23E−7 Molar | CC50 (A549): 1150 nM; TGI (A549): 4.05E−6 Molar; CC50 (HT29): 2480 nM
CC(=O)N=C1NCCC(c2c[nH]c3ccc(Br)cc23)N1 (single isomer, unassigned) [Compound II] | 6260 nM | 418 nM | 1.52E−6 Molar | 656 nM | 388 nM | 5.67E−7 Molar | 
6-hydroxydiscodermindole |  |  |  |  |  |  | IC50 (A-549): > 5 µg/mL; IC50 (P388): 4.6 µg/mL
discodermindole |  |  |  |  |  |  | IC50 (A-549): 4.6 µg/mL; IC50 (P388): 1.8 µg/mL; IC50 (HT-29): 12 µg/mL
